Test results taken from patent US7091225B2, “Substituted oxazoles and thiazoles as hPPAR alpha agonists” (SmithKline Beecham Corporation, priority 2000, dated 2006).

Tests used:
human PPAR alpha = molecular target: T1, human PPAR alpha (Homo sapiens, UniProt Q07869); test: Transient transfection (transactivation) assay in CV-1 cells, hPPAR alpha; type: cell-based; details: PPAR transactivation activity; GAL4-PPAR LBD chimera in CV-1 cells; concentration achieving 50% of maximum activity; read-out: human αEC50
T1 construct: expressed in transfected cells; host or cells: CV-1 cells
T1 sequence (Q07869 239-466 limits assumed): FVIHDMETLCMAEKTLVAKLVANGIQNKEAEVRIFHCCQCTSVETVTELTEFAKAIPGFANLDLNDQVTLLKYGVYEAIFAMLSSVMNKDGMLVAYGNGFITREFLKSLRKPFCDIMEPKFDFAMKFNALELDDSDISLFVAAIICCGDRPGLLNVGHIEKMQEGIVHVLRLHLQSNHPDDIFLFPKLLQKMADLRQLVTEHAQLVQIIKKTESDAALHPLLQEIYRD
Excerpt: (§1) Most preferably, the compounds of formula (I) are selective hPPARalpha agonists. As used herein, a “selective hPPAR alpha agonist” is a hPPARalpha agonist whose EC50 for PPARalpha is at least 10 fold lower than its EC50 for PPAR gamma and PPAR delta. […] Most preferred compounds are greater than 100-fold selective hPPARalpha agonists (see Table 1).
(§2) Compounds were screened for functional potency in transient transfection assays in CV-1 cells for their ability to activate the PPAR subtypes (transactivation assay). A previously established chimeric receptor system was utilized to allow comparison of the relative transcriptional activity of the receptor subtypes on the same target gene and to prevent endogenous receptor activation from complicating the interpretation of results. See, for example, Lehmann, J. M.; Moore, L. B.; Smith-Oliver, T. A.; Wilkison, W. O.; Willson, T. M.; Kliewer, S. A., An antidiabetic thiazolidinedione is a high affinity ligand for peroxisome proliferator-activated receptor γ (PPARγ), J. Biol. Chem., 1995, 270, 12953–6. The ligand binding domains for murine and human PPAR alpha, PPAR gamma, and PPAR delta were each fused to the yeast transcription factor GAL4 DNA binding domain. […]

human PPAR delta = molecular target: T2, human PPAR delta (Homo sapiens, UniProt Q03181); test: Transient transfection (transactivation) assay in CV-1 cells, hPPAR delta; type: cell-based; details: PPAR transactivation activity; GAL4-PPAR LBD chimera in CV-1 cells; concentration achieving 50% of maximum activity; read-out: human δEC50
T2 construct: expressed in transfected cells; host or cells: CV-1 cells
T2 sequence (Q03181 211-439 limits assumed): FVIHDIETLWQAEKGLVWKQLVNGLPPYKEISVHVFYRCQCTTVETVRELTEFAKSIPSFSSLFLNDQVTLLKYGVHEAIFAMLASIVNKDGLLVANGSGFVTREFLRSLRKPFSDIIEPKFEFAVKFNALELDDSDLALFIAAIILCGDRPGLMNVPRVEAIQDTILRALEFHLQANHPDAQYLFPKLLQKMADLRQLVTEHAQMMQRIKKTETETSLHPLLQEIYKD
Excerpt: as §1, §2

human PPAR gamma = molecular target: T3, human PPAR gamma (Homo sapiens, UniProt P37231); test: Transient transfection (transactivation) assay in CV-1 cells, hPPAR gamma; type: cell-based; details: PPAR transactivation activity; GAL4-PPAR LBD chimera in CV-1 cells; concentration achieving 50% of maximum activity; read-out: human γEC50
T3 construct: expressed in transfected cells; host or cells: CV-1 cells
T3 sequence (P37231 238-503 limits assumed): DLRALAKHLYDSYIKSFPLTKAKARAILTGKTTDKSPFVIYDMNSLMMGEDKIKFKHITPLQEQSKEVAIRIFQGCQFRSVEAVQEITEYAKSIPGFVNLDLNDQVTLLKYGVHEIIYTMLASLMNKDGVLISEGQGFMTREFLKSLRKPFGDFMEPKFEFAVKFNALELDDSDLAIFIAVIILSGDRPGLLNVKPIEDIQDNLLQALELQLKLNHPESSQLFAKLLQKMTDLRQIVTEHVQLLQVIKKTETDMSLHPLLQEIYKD
Excerpt: as §1, §2

Row | melting point | EC50 (human PPAR alpha) | EC50 (human PPAR delta) | EC50 (human PPAR gamma) | SMILES
1 | 121 °C |  |  |  | Cc1nc(-c2ccc(C(F)(F)F)cc2)sc1COc1cccc(COCC(=O)O)c1 [Example 6, 2-{(3-[4-methyl-2-(4-trifluoromethylphenyl)thiazol-5-yl]methoxy)benzyloxy}acetic acid]
2 |  | 10 nM | 1600 nM | 3600 nM | Cc1nc(-c2ccc(C(F)(F)F)cc2)sc1COc1cccc(CSCC(=O)O)c1 [Example 4, 2-{[(3-[4-methyl-2-(4-trifluoromethylphenyl)thiazol-5-yl]methoxy)benzyl]thio}acetic acid]
3 |  | 2 nM | 3200 nM | 2600 nM | Cc1nc(-c2ccc(C(F)(F)F)cc2)sc1COc1cccc(COC(C)(C)C(=O)O)c1 [Example 2, 2-methyl-2-{(3-[4-methyl-2-(4-trifluoromethylphenyl)thiazol-5-yl]methoxy)benzyloxy}propionic acid]
4 | 136 °C |  |  |  | Cc1nc(-c2ccc(C(F)(F)F)cc2)sc1C(C)(C)Oc1cccc(COC(C)(C)C(=O)O)c1 [Example 10, 2-methyl-2-[3-{1-methyl-1-[4-methyl-2-(4-trifluoromethylphenyl)thiazol-5-yl]ethoxy}benzyloxy]propionic acid]
